Test results as given in patent US10016517B2, “Bioactive amphiphilic polymer stabilized nanoparticles with enhanced stability and activity” (RUTGERS, THE STATE UNIVERSITY OF NEW JERSEY, priority 2011, dated 2018).

Test system: human MDMs
Assay: DiO oxLDL uptake by PBMC derived macrophages
Format: cell-based
Details: MDMs co-incubated with PEG-b-PLA NPs loaded with M12 and DiO oxLDL
Description: Peripheral blood mononuclear cells (PBMC) were isolated from human buffy coats (Blood Center of New Jersey; East Orange, N.J.) by Ficoll-Paque (1.077 g mL^−1; GE Healthcare) density gradient. Monocytes were selected by plate adherence after two hours by washing thrice with PBS and cultured for 7 days in RPMI 1640 (ATCC) with 10% FBS, 1% Penicillin/Streptomycin and 50 ng mL^−1 M-CSF for differentiation into macrophages (MDM). Media was exchanged every two to three days. Primary Human Coronary Artery Smooth Muscle Cells (CASMC) (Lonza) between passages 3-6 were cultured in SM-GM2 media (Lonza). CASMC were plated on Type I Collagen coated wells for cytotoxicity experiments. […]
Human MDMs were co-incubated with 5 μg mL^−1 of 3,3′-dioctadecyloxacarbocyanine (DiO) labeled oxLDL (Kalen Biomedical; Montgomery Village, Md.) and either NPs or micelles for 24 h in the presence of 0 (serum-free), 5, 10 or 20% FBS. […] Cells were fixed and counterstained with Hoechst 33342 before epifluorescent imaging on a Nikon Eclipse TE2000-S. Uptake of oxLDL in MDMs was quantified by ImageJ and normalized to cell count. Analyzed data were from three independent experiments performed in triplicate.
Inhibition of oxLDL uptake in human MDMs by AM NPs and analogous micellar systems were determined (FIG. 3B-C). […] Uptake of oxLDL in MDMs was determined by ImageJ analysis of epifluorescent images. […]

With “mucic acid modified with lauroyl groups [M12]” the “therapeutic efficacy towards inhibiting oxLDL uptake” value was “no therapeutic efficacy”.
